pIC50: −log10 of the molar value.
Assays:
[1] = test system: AR-responsive transcript FKBP5; assay: AR functional RT-qPCR assay (FKBP5 transcript) in CWR22Pc-R1-AD1 cells; assay type: cell-based, human; conditions: 48 h, 1 nM DHT
Source text: oxygen from the donor to the acceptor, exciting a fluorophore to emit light at 520-620 nm5.
Two primary anti-AR antibodies derived from mouse and rabbit were applied to bind AR simultaneously at separate epitopes. Secondary AlphaScreen® antibodies were combined with the primary antibodies in the form of AlphaScreen® donor beads functionalised with antibodies recognising mouse antibody IgG (PerkinElmer AS104D), and AlphaScreen® acceptor beads functionalised with antibodies recognising rabbit antibody IgG (PerkinElmer AL104C). […]
red free RPMI1640 media supplemented with 10% charcoal-stripped serum was used throughout. […] Media was removed using an ELX405 CW washer (BioTek) and 12 µL RealTime ready Cell Lysis Kit supplemented with RNAse inhibitor (Roche) was added per well. […] RealTime ready RNA Virus Master Mix (Roche) was prepared following manufacturer’s instructions, supplemented with primers and probes for FKBP5 (FAM, IDT Ref Seq # NM_001145776(3)) and β-Actin (VIC, IDT Ref Seq # NM_001101(1)). […] PCR plates were sealed and analysed using a LightCycer®II 480 (Roche). […] 40 PCR cycles were performed consisting of 30 sec at 95 °C, 20 sec at 60 °C, fluorescence acquisition, and 1 sec at 72 °C. Calculated Cq values were exported for analysis. […]

[2] = test system: AR-driven transcription (ARE-Luciferase); assay: AR-driven transcription ARE Luciferase reporter assay in CWR22Pc-R1-AD1 cells; assay type: cell-based, human; conditions: 1 nM DHT, 24 h; for pIC50: CWR22Pc-R1-AD1 cells, read-out: AR-driven transcription (ARE-Luciferase), 24 h, IC50; for Conclusion: activity in ARE-Luciferase assay: Supplementary Table S1;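 as to all read-outs here: cells stably carrying an ARE-driven firefly luciferase reporter, with luminescence as read-out, tested in phenol red free RPMI containing 10% charcoal stripped FBS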
Description: 15 µL 2x Steady-Glo® reagent (Promega) was added per well and incubated 15 min in the dark before reading luminescence using an EnVision platereader. Experiments were performed in phenol red free RPMI media supplemented with 10% charcoal stripped FBS.

Structure (SMILES) | reduction of AR-responsive transcript FKBP5 (RT-qPCR) [1] | pIC50 [2] | Conclusion: activity in ARE-Luciferase assay [2]
N#Cc1cc2cc(CN3CCC(Nc4ncnc5sc(CC(F)(F)F)cc45)CC3)ccc2[nH]1 [MI-136] | confirmed | 5.13 | Active
Cc1c(CN2CCC(Nc3ncnc4sc(CC(F)(F)F)cc34)CC2)ccc2c1cc(C#N)n2Cc1cn[nH]c1 [MI-503] | confirmed | 4.96 | Active

Source: paper PMC5760633, “Determining direct binders of the Androgen Receptor using a high-throughput Cellular Thermal Shift Assay” (Scientific Reports, 2018)
